Laboratory results as given in PubChem BioAssay AID1259411 (Chemical Carcinogenesis Research Information System (CCRIS), 2018).
Activity calls are given as the source filed them. How the calls were made is not given here.

System: rodent carcinogenicity bioassays, tumor incidence
Assay: CCRIS carcinogenicity studies
Summary of the method: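 NCI-built, expert-reviewed records of carcinogenicity and related test outcomes (mutagenicity, tumor promotion/inhibition) compiled from published and report sources, historical span 1985-2011, not updated.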

ClC1(Cl)C2(Cl)C3(Cl)C4(Cl)C(Cl)(Cl)C5(Cl)C3(Cl)C1(Cl)C5(Cl)C24Cl (centres undefined)
carcinogen call (Species: MOUSE, Strain/Sex: B6AKF1/MALE,FEMALE, Route: GAVAGE/ORAL, Dose: 10 MG/KG FROM D 7- 28 OF LIFE THEN 26 PPM IN DIET, Tumor Site: Type of Lesion: LIVER: HEPATOMA): active; positive
carcinogen call (Species: MOUSE, Strain/Sex: B6C3F1/MALE,FEMALE, Route: GAVAGE/ORAL, Dose: 10 MG/KG FROM D 7- 28 OF LIFE THEN 26 PPM IN DIET, Tumor Site: Type of Lesion: LIVER: HEPATOMA): active; positive
carcinogen call (Species: RAT, Route: ORAL, Tumor Site: Type of Lesion: LIVER): active; positive
carcinogen call (Species: RAT, Strain/Sex: F344/FEMALE, Route: ORAL, Dose: 0, 0.1, 1, 10, 25, 50 PPM IN FEED FOR 104 WK (STUDY DURATION: 105 WK), Dose: 0, 0.1, 1, 10, 25, 50 PPM IN FEED FOR 104 WK (STUDY DURATION: 105 WK), Tumor Site: Type of Lesion: HEMATOPOIETIC SYSTEM: MONONUCLEAR CELL LEUKEMIA): active; positive
carcinogen call (Species: RAT, Strain/Sex: F344/FEMALE, Route: ORAL, Dose: 0, 50, 100 PPM IN FEED FOR 104 WK (STUDY DURATION: 106 WK), Dose: 0, 50, 100 PPM IN FEED FOR 104 WK (STUDY DURATION: 106 WK), Tumor Site: Type of Lesion: HEMATOPOIETIC SYSTEM: MONONUCLEAR CELL LEUKEMIA, LIVER: NEOPLASTIC NODULE, NEOPLASTIC NODULE OR HEPATOCELLULAR CARCINOMA): active; positive
carcinogen call (Species: RAT, Strain/Sex: F344/MALE, Route: ORAL, Dose: 0, 0.1, 1, 10, 25, 50 PPM IN FEED FOR 104 WK (STUDY DURATION: 105 WK), Dose: 0, 0.1, 1, 10, 25, 50 PPM IN FEED FOR 104 WK (STUDY DURATION: 105 WK), Tumor Site: Type of Lesion: LIVER: NEOPLASTIC NODULE, NEOPLASTIC NODULE OR HEPATOCELLULAR CARCINOMA, ADRENAL GLAND: PHEOCHROMOCYTOMA, PHEOCHROMOCYTO): active; positive

C=CN(CC)N=O
carcinogen call (Species: HAMSTER, Strain/Sex: SYRIAN/FEMALE, Route: SUBCUTANEOUS, Dose: 0.63-5 MG/KG IN OLIVE OIL 1/WK FOR LIFE, Tumor Site: Type of Lesion: NASAL CAVITY: PAPILLOMA, EPIDERMOID CARCINOMA, ADENOCARCINOMA, LARYNX: PAPILLOMA, EPIDERMOID CARCINOMA, TRACHEA: PAPILLO, Tumor Site: Type of Lesion: NASAL CAVITY: PAPILLOMA, EPIDERMOID CARCINOMA, ADENOCARCINOMA, LARYNX: PAPILLOMA, EPIDERMOID CARCINOMA, TRACHEA: PAPILLO): active; positive
carcinogen call (Species: HAMSTER, Strain/Sex: SYRIAN/MALE, Route: SUBCUTANEOUS, Dose: 0.63-5 MG/KG IN OLIVE OIL 1/WK FOR LIFE, Tumor Site: Type of Lesion: NASAL CAVITY: PAPILLOMA, EPIDERMOID CARCINOMA, ADENOCARCINOMA, LARYNX: PAPILLOMA, EPIDERMOID CARCINOMA, TRACHEA: PAPILLO, Tumor Site: Type of Lesion: NASAL CAVITY: PAPILLOMA, EPIDERMOID CARCINOMA, ADENOCARCINOMA, LARYNX: PAPILLOMA, EPIDERMOID CARCINOMA, TRACHEA: PAPILLO): active; positive
carcinogen call (Species: RAT, Route: INTRAVENOUS, Dose: 10.0 MG/KG 1/WK(MEAN TOTAL DOSE 0.25 G/KG), Tumor Site: Type of Lesion: ESOPHAGUS): active; positive
carcinogen call (Species: RAT, Route: ORAL, Dose: 1.30, 2.50 MG/KG 7/WK (MEAN TOTAL DOSE 0.23; 0.42 G/KG), Dose: 1.30, 2.50 MG/KG 7/WK (MEAN TOTAL DOSE 0.23; 0.42 G/KG), Tumor Site: Type of Lesion: ESOPHAGUS): active; positive

CC1CC2OC2CC1COC(=O)C1CC2OC2CC1C (centres undefined)
carcinogen call (Species: MOUSE, Route: DERMAL, Tumor Site: Type of Lesion: INTEGUMENTARY SYSTEM (SKIN)): active; positive

Cc1ccc(N)c(C)c1
carcinogen call (Species: MOUSE, Strain/Sex: CD-1/FEMALE, Route: ORAL, Tumor Site: Type of Lesion: LUNG): active; positive

CCCCCCCC/C=C\CCCCCCCC(=O)O
carcinogen call (Species: MOUSE, Strain/Sex: B6C3F1/FEMALE, Route: ORAL, Dose: 0, 0.25, 1.0% IN DRINKING WATER FOR 96 WK (STUDY DURATION: 104 WK), Dose: 0, 0.25, 1.0% IN DRINKING WATER FOR 96 WK (STUDY DURATION: 104 WK)): inactive; negative
carcinogen call (Species: MOUSE, Strain/Sex: B6C3F1/MALE, Route: ORAL, Dose: 0, 0.25, 1.0% IN DRINKING WATER FOR 96 WK (STUDY DURATION: 104 WK), Dose: 0, 0.25, 1.0% IN DRINKING WATER FOR 96 WK (STUDY DURATION: 104 WK)): inactive; negative
carcinogen call (Species: RAT, Strain/Sex: F344/FEMALE, Route: ORAL, Dose: 0, 2.5, 5% IN DRINKING WATER FOR 108 WK (STUDY DURATION: 2 YR), Dose: 0, 2.5, 5% IN DRINKING WATER FOR 108 WK (STUDY DURATION: 2 YR)): inactive; negative
carcinogen call (Species: RAT, Strain/Sex: F344/MALE, Route: ORAL, Dose: 0, 2.5, 5% IN DRINKING WATER FOR 108 WK (STUDY DURATION: 2 YR), Dose: 0, 2.5, 5% IN DRINKING WATER FOR 108 WK (STUDY DURATION: 2 YR)): inactive; negative

NCCNc1cccc2ccccc12
carcinogen call (Species: MOUSE, Strain/Sex: B6C3F1/FEMALE, Route: ORAL, Dose: 0, 0.2, 0.3% OF DIET, TWA FOR HIGH DOSE, Dose: 0, 0.2, 0.3% OF DIET, TWA FOR HIGH DOSE): inactive; negative
carcinogen call (Species: MOUSE, Strain/Sex: B6C3F1/MALE, Route: ORAL, Dose: 0, 0.05, 0.1% OF DIET, Dose: 0, 0.05, 0.1% OF DIET): inactive; negative
carcinogen call (Species: RAT, Strain/Sex: F344/FEMALE, Route: ORAL, Dose: 0, 0.05, 0.1% OF DIET, Dose: 0, 0.05, 0.1% OF DIET): inactive; negative
carcinogen call (Species: RAT, Strain/Sex: F344/MALE, Route: ORAL, Dose: 0, 0.05, 0.1% OF DIET, Dose: 0, 0.05, 0.1% OF DIET): inactive; negative

O=C(O)C(Cl)(Cl)Cl
carcinogen call (Species: MOUSE, Strain/Sex: B6C3F1/FEMALE, Route: INTRAPERITONEAL, Dose: 0, 1000 NMOL TOTAL DOSE, 1/3 AND 2/3 OF THE TOTAL DOSE ADMINISTERED AT 8 AND 15 DAYS OF AGE RESPECTIVELY, ANIMALS TERMIN): inactive; negative
carcinogen call (Species: MOUSE, Strain/Sex: B6C3F1/FEMALE, Route: INTRAPERITONEAL, Dose: 0, 2000 NMOL TOTAL DOSE, 3/7 AND 4/7 OF THE TOTAL DOSE ADMINISTERED AT 8 AND 15 DAYS OF AGE RESPECTIVELY, ANIMALS TERMIN): inactive; negative
carcinogen call (Species: MOUSE, Strain/Sex: B6C3F1/FEMALE, Route: ORAL, Dose: 0, 2, 6.67, 20 MMOL/L IN DRINKING WATER FOR 360 D (STUDY DURATION: 360 D), Dose: 0, 2, 6.67, 20 MMOL/L IN DRINKING WATER FOR 360 D (STUDY DURATION: 360 D), Tumor Site: Type of Lesion: LIVER: CARCINOMA): active; positive
carcinogen call (Species: MOUSE, Strain/Sex: B6C3F1/FEMALE, Route: ORAL, Dose: 0, 2, 6.67, 20 MMOL/L IN DRINKING WATER FOR 576 D (STUDY DURATION: 576 D), Dose: 0, 2, 6.67, 20 MMOL/L IN DRINKING WATER FOR 576 D (STUDY DURATION: 576 D), Tumor Site: Type of Lesion: LIVER: ADENOMA, CARCINOMA): active; positive
carcinogen call (Species: MOUSE, Strain/Sex: B6C3F1/MALE, Route: INTRAPERITONEAL, Dose: 0, 1000 NMOL TOTAL DOSE, 1/3 AND 2/3 OF THE TOTAL DOSE ADMINISTERED AT 8 AND 15 DAYS OF AGE RESPECTIVELY, ANIMALS TERMIN): inactive; negative
carcinogen call (Species: MOUSE, Strain/Sex: B6C3F1/MALE, Route: INTRAPERITONEAL, Dose: 0, 2000 NMOL TOTAL DOSE, 3/7 AND 4/7 OF THE TOTAL DOSE ADMINISTERED AT 8 AND 15 DAYS OF AGE RESPECTIVELY, ANIMALS TERMIN): inactive; negative
carcinogen call (Species: MOUSE, Strain/Sex: B6C3F1/MALE, Route: ORAL, Dose: 0, 1, 2 G/L IN DRINKING WATER FOR 52 WK (STUDY DURATION: 52 WK), Dose: 0, 1, 2 G/L IN DRINKING WATER FOR 52 WK (STUDY DURATION: 52 WK), Tumor Site: Type of Lesion: LIVER: ADENOMA OR HEPATOCELLULAR CARCINOMA): active; positive
carcinogen call (Species: MOUSE, Strain/Sex: B6C3F1/MALE, Route: ORAL, Dose: 0, 5 G/L (0; 31 MILLIMOLAR) IN DRINKING WATER FOR 61 WK (STUDY DURATION: 61 WK), Dose: 0, 5 G/L (0; 31 MILLIMOLAR) IN DRINKING WATER FOR 61 WK (STUDY DURATION: 61 WK), Tumor Site: Type of Lesion: LIVER: CARCINOMA): active; positive
carcinogen call (Species: RAT, Strain/Sex: F344/MALE, Route: ORAL, Dose: 0, 0.05, 0.5, 5 G/L IN DRINKING WATER FOR 104 WK (STUDY DURATION: 104 WK), Dose: 0, 0.05, 0.5, 5 G/L IN DRINKING WATER FOR 104 WK (STUDY DURATION: 104 WK)): inactive; negative
